pEC50, pIC50: −log10 of the molar value.

Our source for the IC50 and EC50 values is US20240376084A1, “INHIBITORS OF ALPHA-HEMOLYSIN OF STAPHYLOCOCCUS AUREUS” (Helmholtz-Zentrum Fur Infektionsforschung GmbH, priority 2021, published 2024).

In the test the target is hemolysin alpha from Staphylococcus aureus (Staphylococcus aureus, UniProt P09616). Nature of the test: cell-based.
Chain of hemolysin alpha from Staphylococcus aureus (P09616 27-319 limits assumed): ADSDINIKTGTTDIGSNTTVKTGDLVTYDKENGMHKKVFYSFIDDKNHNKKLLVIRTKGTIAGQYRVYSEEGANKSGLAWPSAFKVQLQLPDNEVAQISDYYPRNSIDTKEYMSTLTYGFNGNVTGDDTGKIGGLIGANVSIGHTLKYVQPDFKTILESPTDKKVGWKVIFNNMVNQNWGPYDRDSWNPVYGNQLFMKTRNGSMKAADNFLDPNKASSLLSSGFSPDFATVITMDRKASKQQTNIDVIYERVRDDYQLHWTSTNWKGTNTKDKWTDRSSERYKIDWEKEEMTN
In general, pIC50 refers to the IC50 on a negative log10 scale, so that one unit is a factor of ten. A higher pIC50 goes with a small IC50. For the compound `Cc1ccc(-c2ccc(NS(=O)(=O)c3cc4[nH]c(=O)c(=O)[nH]c4cc3C)cc2)cc1` [Compound 115, 7-methyl-N-(4′-methyl-[1,1′-biphenyl]-4-yl)-2,3-dioxo-1,2,3,4-tetrahydroquinoxaline-6-sulfonamide], the pIC50 is 6.00 to 7.00.

`Cc1cc(NS(=O)(=O)c2cc3[nH]c(=O)c(=O)[nH]c3cc2F)cc(C)c1Br` [Compound 162, N-(4-bromo-3,5-dimethylphenyl)-7-fluoro-2,3-dioxo-1,2,3,4-tetrahydroquinoxaline-6-sulfonamide] had a pIC50 of 6.00 to 7.00.

For orientation: pEC50 means the EC50 on a negative log10 scale, so that one unit is a factor of ten. Consider `Cc1cc2[nH]c(=O)c(=O)[nH]c2cc1S(=O)(=O)Nc1cnc(-c2ccc(F)c(Cl)c2)c(Cl)c1` [Compound 214, N-(5-chloro-6-(3-chloro-4-fluorophenyl)pyridin-3-yl)-7-methyl-2,3-dioxo-1,2,3,4-tetrahydroquinoxaline-6-sulfonamide], for which the pEC50 was 6.00 to 7.00.

Compound `COc1cc2[nH]c(=O)c(=O)[nH]c2cc1S(=O)(=O)Nc1ccc(OC(F)(F)F)cc1` [Compound 193, 7-methoxy-2,3-dioxo-N-(4-(trifluoromethoxy)phenyl)-1,2,3,4-tetrahydroquinoxaline-6-sulfonamide] gave a pEC50 of 6.00 to 7.00.

With `CC(C)c1cc2[nH]c(=O)c(=O)[nH]c2cc1S(=O)(=O)Nc1ccc(C2CC2)cc1` [Compound 153, N-(4-cyclopropylphenyl)-7-isopropyl-2,3-dioxo-1,2,3,4-tetrahydroquinoxaline-6-sulfonamide], the pIC50 is 6.00 to 7.00.

`Cc1cc2[nH]c(=O)c(=O)[nH]c2cc1S(=O)(=O)Nc1cnc(-c2cccc(Cl)c2)c(Cl)c1` [Compound 213, N-(5-chloro-6-(3-chlorophenyl)pyridin-3-yl)-7-methyl-2,3-dioxo-1,2,3,4-tetrahydroquinoxaline-6-sulfonamide] showed a pEC50 of 6.00 to 7.00.

For the compound `Cc1cc2[nH]c(=O)c(=O)[nH]c2cc1S(=O)(=O)Nc1ccc(-c2cncc(Cl)c2)c(Cl)c1` [Compound 189, N-(3-chloro-4-(5-chloropyridin-3-yl)phenyl)-7-methyl-2,3-dioxo-1,2,3,4-tetrahydroquinoxaline-6-sulfonamide], the pIC50 is 7.00 to 7.52.

Turning to `CC(C)c1cc2[nH]c(=O)c(=O)[nH]c2cc1S(=O)(=O)Nc1ccc(-c2ccccc2)c(Cl)c1` [Compound 176, N-(2-chloro-[1,1′-biphenyl]-4-yl)-7-isopropyl-2,3-dioxo-1,2,3,4-tetrahydroquinoxaline-6-sulfonamide], the pIC50 was 6.00 to 7.00.

Consider `CCOc1ccc(NS(=O)(=O)c2cc3[nH]c(=O)c(=O)[nH]c3cc2C)cc1` [Compound 111, N-(4-ethoxyphenyl)-7-methyl-2,3-dioxo-1,2,3,4-tetrahydroquinoxaline-6-sulfonamide], for which the pIC50 is 6.00 to 7.00.

Compound `Cc1cc2[nH]c(=O)c(=O)[nH]c2cc1S(=O)(=O)Nc1ccc(N2CCOC(C)C2)c(Cl)c1` (stereo not shown) [Compound 204, N-(3-chloro-4-(2-methylmorpholino)phenyl)-7-methyl-2,3-dioxo-1,2,3,4-tetrahydroquinoxaline-6-sulfonamide] showed a negative logarithm of the EC50 (pEC50) of 5.46 to 6.00.

Compound `Cc1cc2[nH]c(=O)c(=O)[nH]c2cc1S(=O)(=O)Nc1cnc(Br)c(Cl)c1` [Compound 236, N-(6-bromo-5-chloropyridin-3-yl)-7-methyl-2,3-dioxo-1,2,3,4-tetrahydroquinoxaline-6-sulfonamide] gave a pEC50 of 5.46 to 6.00.

As for `Cc1cc2[nH]c(=O)c(=O)[nH]c2cc1S(=O)(=O)Nc1ccc2c(ccn2C)c1` [Compound 228, 7-methyl-N-(1-methyl-1H-indol-5-yl)-2,3-dioxo-1,2,3,4-tetrahydroquinoxaline-6-sulfonamide], the pEC50 is 5.46 to 6.00.

`Cc1cc(NS(=O)(=O)c2cc3[nH]c(=O)c(=O)[nH]c3cc2F)ccc1-c1ccncc1` [Compound 169, 7-fluoro-N-(3-methyl-4-(pyridin-4-yl)phenyl)-2,3-dioxo-1,2,3,4-tetrahydroquinoxaline-6-sulfonamide] gave a pIC50 of 6.00 to 7.00.
